{"source": "patent US20220117972A1", "about": "“USE OF PPAR-DELTA AGONISTS IN THE TREATMENT OF MITOCHONDRIAL MYOPATHY” (Reneo Pharmaceuticals, Inc., priority 2019, published 2022)", "key": {"human muscle cell lines": {"test_system": "human muscle cell lines", "assay": "fatty acid oxidation in human muscle cell line", "type": "cell-based", "details": "in vitro"}, "[1]": {"test_system": "PPARδ regulated genes (CPT1b, PDK4, PGC-1α)", "assay": "in vivo gene expression in mouse muscle, 7-day study", "details": "male C57BL/6 mice, oral 30 mg/kg once daily 7 days, quadriceps muscle 4 h after final dose", "description": "Male C57BL/6 mice were administered an oral dose of Compound 1 at 30 mg/kg, once daily for 7 consecutive days. Four hours following the final dose administration on day 7, all mice were euthanized, and two samples of quadriceps muscle were dissected from the right and left limbs."}, "hPPARα": {"molecular_target": "T1, hPPARα (Homo sapiens, UniProt Q07869)", "T1 construct": "expressed in transfected cells; host or cells: Jump-In GripTite HEK293", "T1 sequence (Q07869 239-466 limits assumed)": "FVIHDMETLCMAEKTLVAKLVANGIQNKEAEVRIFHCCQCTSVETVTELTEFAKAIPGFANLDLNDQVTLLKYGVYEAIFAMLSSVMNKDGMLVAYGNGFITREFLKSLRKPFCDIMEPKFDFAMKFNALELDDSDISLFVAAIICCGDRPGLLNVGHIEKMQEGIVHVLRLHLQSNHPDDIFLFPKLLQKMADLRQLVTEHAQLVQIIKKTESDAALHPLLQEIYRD", "assay": "PPAR receptor transactivation assay, human PPARα", "type": "cell-based", "description": "(§1) Compound 1 was tested on all three human PPAR subtypes (hPPAR): hPPARα, hPPARγ, and hPPARδ. All assays were repeated at least three times for each subtype.\n(§2) The genes of interest were synthesized and cloned into an appropriate Jump-In™ retargeting vector following the User Guide of the Jump-In™ T-REx™ HEK293 Retargeting Kit (ThermoFisher Catalog No A15008). For example, the vector will be used to transfect and retarget the Jump-In™ HEK293 GripTite™ parental cell line. Stable pools will be antibiotic-selected for about 21 days and tested for target gene expression by functional assay.\n(§3) Jump-In™ GripTite™ HEK293 parental cells were plated at 60-80% confluency in a T-75 flask in growth medium without antibiotics and transfected with a 1:1 ratio of expression construct and R4 integrase expression construct (20 μg DNA total) using Lipofectamine® LTX (50 μL) and PLUS™ Reagent (20 μL). Following a 48 hours incubation, cells were selected with 600 μg/mL Geneticin® and 10 μg/mL Blasticidin for ˜21 days in growth medium.\n(§4) Jump-In™ GripTite™ HEK293 rPPAR Alpha, Delta or Gamma UAS-bla-Gal4 cell pools were plated in a 384-well plate format (20,000 cells per well) in OptiMeM without FBS in replicates (n=4). Cells were allowed to adhere for 8 hours before addition of Compound 1 (1 mM top concentration, 3-fold dilutions, 10-point titration). After 16 hours, the cells were loaded with LiveBLAzer®, a fluorescent BLA substrate that gives a blue/green readout of expressing/non-expressing cells, respectively. The blue/green readout was measured on a fluorescent plate reader (Tecan Safire II)."}, "hPPARγ": {"molecular_target": "T2, hPPARγ (Homo sapiens, UniProt P37231)", "T2 construct": "expressed in transfected cells; host or cells: Jump-In GripTite HEK293", "T2 sequence (P37231 238-503 limits assumed)": "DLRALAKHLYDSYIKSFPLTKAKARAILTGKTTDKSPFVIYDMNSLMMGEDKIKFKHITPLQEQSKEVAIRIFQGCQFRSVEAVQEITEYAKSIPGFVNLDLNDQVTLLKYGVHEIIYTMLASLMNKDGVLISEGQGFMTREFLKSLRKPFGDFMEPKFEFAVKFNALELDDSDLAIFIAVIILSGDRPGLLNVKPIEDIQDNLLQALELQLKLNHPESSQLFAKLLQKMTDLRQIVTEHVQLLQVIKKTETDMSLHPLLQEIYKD", "assay": "PPAR receptor transactivation assay, human PPARγ", "type": "cell-based", "description": "as §1, §2, §3, §4"}}, "note": "Where two headings read alike, the source gives them in different places."}
{"molecule": "Cc1cc(OC/C=C(/c2ccc(F)cc2)c2ccc(C#CCN3CCOCC3)cc2)ccc1OCC(=O)O", "note": "[Compound 1, (E)-[4-[3-(4-Fluorophenyl)-3-[4-[3-(morpholin-4-yl)propynyl]phenyl]allyloxy]-2-methyl-phenoxy]acetic acid]", "values": [{"measurement": "fatty acid oxidation", "setting": "human muscle cell lines", "value": "dose-dependent increase"}, {"measurement": "expression patterns of PPARδ regulated genes (CPT1b, PDK4, PGC-1α)", "setting": "[1]", "value": "altered the expression patterns"}, {"measurement": "EC50", "setting": "hPPARα; Human PPARα, read-out: EC50 (nM) Mean", "value": "> 10000", "unit": "nM"}, {"measurement": "EC50", "setting": "hPPARα; human PPARα, Example 12, read-out: EC50", "value": "> 10000", "unit": "nM"}, {"measurement": "activity on PPARα in transactivation assays", "setting": "hPPARα; in some cases", "value": "negligible activity"}, {"measurement": "agonist type at PPARα", "setting": "hPPARα; in some cases", "value": "partial agonist"}, {"measurement": "EC50", "setting": "hPPARγ; Human PPARγ", "value": "> 10000", "unit": "nM"}, {"measurement": "activity on PPARγ in transactivation assays", "setting": "hPPARγ; in some cases", "value": "negligible activity"}, {"measurement": "agonist type at PPARγ", "setting": "hPPARγ; in some cases", "value": "partial agonist"}]}
